Experimental data published in ChEMBL document CHEMBL3603798, “Computer-aided identification, synthesis, and biological evaluation of novel inhibitors for botulinum neurotoxin serotype A” (Bioorg Med Chem, 2015).
Calls of active or inactive are those of the source. No cut-off for these calls is given here.

How the values were obtained:
[1] = target: Botulinum neurotoxin type A (Clostridium botulinum, UniProt P0DPI0); test: Inhibition of Clostridium botulinum neurotoxin type A light chain by SNAPtide assay
[2] = target: Botulinum neurotoxin type A (Clostridium botulinum) (UniProt P0DPI0); test: Inhibition of Clostridium botulinum neurotoxin type A light chain incoulated in mouse Neuro2a cells assessed as reduction in SNAP-25 cleavage at 10 uM incubated for 48 hrs by SDS-PAGE based Western blotting method; format: cell-based
[3] = Toxicity against mouse Neuro2a cells assessed as reduction in cell viability at 10 to 100 uM incubated for 48 hrs; format: cell-based; settings: n2a

Botulinum neurotoxin type A, sequence (P0DPI0 2-448 limits assumed): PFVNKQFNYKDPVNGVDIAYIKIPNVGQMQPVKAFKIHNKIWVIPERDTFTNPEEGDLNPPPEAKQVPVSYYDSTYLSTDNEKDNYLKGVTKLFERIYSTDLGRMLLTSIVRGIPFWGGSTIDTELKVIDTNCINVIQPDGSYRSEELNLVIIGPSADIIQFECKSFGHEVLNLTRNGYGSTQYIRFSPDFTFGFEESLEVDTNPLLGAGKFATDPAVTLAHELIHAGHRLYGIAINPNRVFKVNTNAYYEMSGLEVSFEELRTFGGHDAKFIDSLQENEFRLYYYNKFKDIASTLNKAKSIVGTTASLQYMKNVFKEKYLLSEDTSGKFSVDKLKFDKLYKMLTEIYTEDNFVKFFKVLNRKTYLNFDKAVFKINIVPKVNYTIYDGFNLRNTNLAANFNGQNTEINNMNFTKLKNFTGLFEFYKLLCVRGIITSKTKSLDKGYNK
Botulinum neurotoxin type A (Clostridium botulinum), sequence (P0DPI0 2-448 limits assumed): as above

Structure (SMILES)	IC50 [1] [µM]	inhibition [2]	Activity [3]
O=C(COc1ccc(/C=C2\NC(=O)N(Cc3ccccc3F)C2=O)cc1)Nc1ccc(F)cc1	26		
O=C(COc1ccccc1/C=C1\NC(=O)N(Cc2ccccc2F)C1=O)Nc1ccc(F)cc1	22	Active	Non-toxic
Cc1cc(NC(=S)N(CCCN2CCC[C@@H](C)C2)Cc2cccs2)ccc1Cl	92		
COc1cccc(CN2C(=O)c3ccccc3[C@@H]2C(=O)NC2CCC(C)CC2)c1 (stereo not given in full)	157		
COC(=O)c1c(C)nc2n(CCN3CCCCC3)c3ccccc3n12	55		
O=c1[nH]c2cc3c(cc2c(=O)n1CCc1nc(-c2ccc(C(F)(F)F)cc2)no1)OCO3	24	Active	Non-toxic
N=C(N)NCCC[C@H](NC(=O)[C@@H](N)CCCNC(=N)N)C(=O)NCC(=O)N[C@@H](CS)C(=O)O	31		
O=c1c2cc3c(cc2n(Cc2nc(-c4ccc(C(F)(F)F)cc4)no2)c(=O)n1Cc1nc(-c2ccc(C(F)(F)F)cc2)no1)OCO3	16		
Cc1ccc(-c2nc(SCC(=O)N3CCCC[C@@H]3C)c(S(=O)(=O)c3ccccc3)[nH]2)cc1	159		
O=C(COc1cccc(/C=C2\NC(=O)N(Cc3ccccc3F)C2=O)c1)Nc1ccc(F)cc1	> 50		
CC[C@@H]1Oc2ccccc2N(CC(=O)NCCCN2CCC(Cc3ccccc3)CC2)C1=O	154		
